Source: PubChem BioAssay (NCI)
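Cultured in 96-well plates, cells were exposed to test compound for 48 hours across five concentrations. Abbreviation: GI50, concentration required for 50% inhibition of growth. TGI marks complete inhibition of growth.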

What was measured:
Assay in all cases: NCI-60 cell line screen, 48 h
[1] = test system: MALME-3M melanoma
[2] = test system: OVCAR-8 ovarian
[3] = test system: EKVX NSCLC
[4] = test system: SN12C renal
[5] = test system: TK-10 renal
[6] = test system: SW-620 colon
[7] = test system: NCI-H460 lung
[8] = test system: SF-268 CNS
[9] = test system: MCF7 breast
[10] = test system: CAKI-1 renal

Row | Structure (SMILES) | TGI [1] [µM] | TGI [2] [µM] | TGI [3] [µM] | TGI [4] [µM] | TGI [5] [µM] | TGI [6] [µM] | TGI [7] [µM] | TGI [8] [µM] | GI50 [1] [µM] | GI50 [9] [µM] | TGI [9] [µM] | GI50 [2] [µM] | GI50 [4] [µM] | GI50 [5] [µM] | GI50 [6] [µM] | GI50 [7] [µM] | GI50 [8] [µM] | GI50 [10] [µM] | TGI [10] [µM] | GI50 [3] [µM]
1 | C=C/C=C(\NC(=O)C(Cl)(Cl)Cl)[Si](C)(C)C | > 100 | > 100 | > 100 | > 100 | > 100 | > 100 | > 100 | > 100 |  |  |  |  |  |  |  |  |  |  |  | 
2 | CCCCCCCC/C=C/CCCCCCCCC1=NCCN1CCO | 17.3 | 21.7 |  | 15.9 | 26.7 | 3.24 | 3.32 | 16.2 | 5.08 | 1.77 | 4.02 | 3.88 | 4.19 | 12.6 | 1.71 | 1.81 | 3.66 | 3.61 | 14.8 | 
3 | COc1cc2c(cc1OC)-c1cc3cc(OC)c(OC)cc3n1CC2 | 72.6 | 73.1 | > 100 | > 100 | 51.9 | > 100 | > 100 | > 100 |  |  |  |  |  |  |  |  |  |  | > 100 | 
4 | O=S(O)CCCCCSSCCCCSSCCCCCS(=O)O | 86.6 | > 100 | > 100 | > 100 | > 100 | > 100 | > 100 | > 100 |  |  |  |  |  |  |  |  |  |  | > 100 | 
5 | O=C(CC1(O)C(=O)Nc2ccccc21)c1ccccc1Cl (configuration not stated) | > 100 | > 100 | > 100 | > 100 | > 100 | > 100 | > 100 | > 100 |  |  |  |  |  |  |  |  |  |  | > 100 | 
6 | O=C(OCc1ccccc1)N1CCN(/[N+]([O-])=N/Oc2ccc([N+](=O)[O-])cc2[N+](=O)[O-])CC1 |  | > 100 | 35 | 30.1 | 33.4 | > 100 | 40.6 | 23.9 |  | 2.84 | 8.87 | 31.5 | 11.5 | 17.6 | 3.79 | 9.96 | 6.28 | 4.8 | 15.9 | 16.7
7 | CC1=CC(=O)CCC2(C)C1CC[C@@H]2OC=O (some centres not stated) |  | > 100 | > 100 | > 100 | > 100 | > 100 | > 100 | > 100 |  |  |  |  |  |  |  |  |  |  | > 100 | 
8 | Cc1ccc(-c2nc(SCC(=O)O)n[nH]2)cc1 | > 100 | > 100 | > 100 | > 100 | > 100 | > 100 | > 100 | > 100 |  |  |  |  |  |  |  |  |  |  | > 100 | 
9 | COc1cc(C(=O)/C=C/c2cc(C(=O)c3cc(OC)c(OC)c(OC)c3)ccc2OC)ccc1N | 4.16 | 6.12 |  | 4.92 | 18 | > 100 | 7.61 |  | 1.47 | 0.322 | 2.28 | 0.846 | 1.62 | 3.61 | 0.374 | 2.13 |  | 0.669 | 19.4 | 
10 | CN(C)c1ccc(N=Cc2c([O-])ccc3ccccc23)cc1.[C-]#[O+].[C-]#[O+].[Ir] | 41.7 | > 100 | 64.6 | 35.5 | 53.3 | 32.5 |  | 50.6 | 20.7 |  |  | 28.8 | 19 | 22.5 | 16.7 |  | 22.5 | 22 | 40.7 | 24.9
11 | CC/C=C1\N=C(c2ccc(Cl)cc2)OC1=O | > 100 | > 100 | > 100 | > 100 | > 100 | > 100 | > 100 | > 100 |  |  |  |  |  |  |  |  |  |  | > 100 | 
12 | CC(C)(C)NN=C1C(C)(C)C(=NNC(C)(C)C)C1(C)C | > 100 | > 100 |  | > 100 | > 100 | > 100 | > 100 | > 100 |  |  |  |  |  |  |  |  |  |  | > 100 | 
13 | CCC(C)n1cc(C)c2c(C(=O)NCc3c(C)cc(C)[nH]c3=O)cc(Br)cc21 (configuration not stated) | 99.7 | > 100 |  | > 100 | > 100 | > 100 | > 100 | > 100 | 36.2 | 29.4 | > 100 | 63.7 | 55.6 | > 100 | 36.4 | 40.3 | 72.3 | 94.1 | > 100 | 
14 | Cn1c2c(c3ccccc31)C1CCCCC1C1C(=O)NC(=O)C21 (configuration not stated) | > 100 | > 100 | > 100 | > 100 | > 100 | > 100 | > 100 | > 100 |  |  |  |  |  |  |  |  |  |  |  | 
15 | Cc1ccc(NC(=O)NC(=O)c2ccc([N+](=O)[O-])cc2[N+](=O)[O-])cc1Oc1ncc(Cl)cn1 | 22.3 | 6.7 |  | 16.6 | > 100 | 12.6 | 14.8 | 21.8 |  |  | 20.5 |  |  |  |  |  |  |  | 62.9 | 
16 | Cc1cc2cc3cc(C)c(N(C)C)cc3nc2cc1N(C)C | 19 | 28.1 |  | 29.3 | 31.2 | 26.6 | 11.5 | 15.1 | 3.53 | 1.76 | > 100 | 2.83 | 3.22 | 4.03 | 3.1 | 2.37 | 3.45 | 2.22 | 25.3 | 
17 | C[C@]12CCC[C@H](Cl)C1(O)C[C@H](C(=O)O)CC2 (some centres not stated) | > 100 | > 100 | > 100 | > 100 | > 100 | > 100 | > 100 | > 100 |  |  |  |  |  |  |  |  |  |  | > 100 | 
18 | CCOC(=O)C(=O)Nc1c(F)cc(F)cc1Br | > 100 | > 100 | > 100 | > 100 | > 100 | > 100 | > 100 | > 100 |  |  |  |  |  |  |  |  |  |  | > 100 | 
19 | CN1C2(c3ccccc3)c3c(-c4ccccc4)sc(-c4ccccc4)c3C1(c1ccccc1)C1C(=O)N(c3ccccc3)C(=O)C12 (configuration not stated) | > 100 | > 100 | > 100 | > 100 | > 100 | > 100 | > 100 | > 100 |  |  |  |  |  |  |  |  |  |  | > 100 | 
